For 7 molecules, GI50 and TGI results are on record in PubChem BioAssay (NCI).

SMILES strings stand for the structures.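 48-hour exposure; five concentrations; linearly interpolated endpoints. GI50 marks 50% less growth. At the TGI there is no net growth.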

Some test systems named below: UACC-257 melanoma; SF-295 CNS; UACC-62 melanoma; U251 CNS; SK-MEL-2 melanoma; HCC-2998 colon; EKVX NSCLC; CAKI-1 renal; SK-MEL-28 melanoma; SNB-75 CNS.
What all share (assay): inhibition of tumour cell growth, NCI panel, 48 h

For the molecule `COc1cc2nccc(Oc3ccc(NC(=O)c4cn(C(C)C)c(=O)n(-c5ccc(F)cc5)c4=O)cc3F)c2cc1OC`, the GI50 in the assay on UACC-257 melanoma was 7.65 µM; with SF-295 CNS it was 0.435 µM; with UACC-62 melanoma, 6.03 µM; with U251 CNS, greater than 100 µM; in the assay on SK-MEL-2 melanoma it was greater than 68.1 µM; in the assay with HCC-2998 colon it was greater than 100 µM. For the same molecule, the GI50 in the assay with EKVX NSCLC was greater than 30.1 µM; with CAKI-1 renal it was 1.91 µM; in the assay on SK-MEL-28 melanoma it was 3.19 µM; with SNB-75 CNS, 1.03 µM. Also, the TGI is greater than 77.5 µM in the assay with UACC-257 melanoma; greater than 100 µM in the assay on SF-295 CNS; greater than 100 µM in the assay with UACC-62 melanoma; greater than 100 µM in the assay on U251 CNS; greater than 100 µM in the assay on SK-MEL-2 melanoma; greater than 100 µM in the assay on HCC-2998 colon. The TGI in the assay with EKVX NSCLC is greater than 100 µM; in the assay on CAKI-1 renal, 6 µM; in the assay on SK-MEL-28 melanoma it was 18.1 µM; with SNB-75 CNS it was greater than 21.9 µM.

Consider `N#Cc1cc(S(=O)(=O)Nc2nc3ccccc3o2)c(SCc2ccccc2)cc1Cl`, for which the GI50 with UACC-257 melanoma was 22.3 µM; in the assay on SF-295 CNS, 27.2 µM; in the assay on UACC-62 melanoma it was 20.3 µM; in the assay on U251 CNS, 18.9 µM; in the assay with SK-MEL-2 melanoma, 22.3 µM; with HCC-2998 colon, 19 µM. Further, the GI50 was 18.4 µM with EKVX NSCLC, 24.7 µM in the assay on CAKI-1 renal, 18.9 µM in the assay with SK-MEL-28 melanoma and 25.5 µM in the assay with SNB-75 CNS. For the same molecule, the TGI turned out to be 55.9 µM with UACC-257 melanoma; 65.8 µM in the assay with SF-295 CNS; 52.2 µM in the assay with UACC-62 melanoma; 34 µM in the assay with U251 CNS; 53.4 µM in the assay with SK-MEL-2 melanoma; 34.3 µM in the assay with HCC-2998 colon. Further, the TGI with EKVX NSCLC is 42.7 µM; with CAKI-1 renal it was 65.2 µM; in the assay on SK-MEL-28 melanoma, 40.4 µM; in the assay on SNB-75 CNS it was 59.3 µM.

For `NC(Cc1ccccc1)c1nccs1` (stereo not given), the TGI with UACC-257 melanoma, with SF-295 CNS, in the assay with UACC-62 melanoma, with U251 CNS, in the assay on SK-MEL-2 melanoma and in the assay on HCC-2998 colon was greater than 100 µM each time. In addition, the TGI with EKVX NSCLC, with CAKI-1 renal, in the assay on SK-MEL-28 melanoma and in the assay with SNB-75 CNS was greater than 100 µM in each case.

Regarding `COc1ccc2[nH]c(C(=O)OCc3ccc4c(Cl)cc(Cl)c(O)c4n3)cc2c1`, the GI50 was 1.64 µM in the assay on UACC-257 melanoma; 5.12 µM in the assay with SF-295 CNS; 1.33 µM in the assay with UACC-62 melanoma; 1.55 µM in the assay with U251 CNS; 1.61 µM in the assay with SK-MEL-2 melanoma; 1.64 µM in the assay with HCC-2998 colon. Also, the GI50 in the assay on EKVX NSCLC is 1.45 µM; with CAKI-1 renal it was 0.768 µM; with SK-MEL-28 melanoma, 1.67 µM; in the assay with SNB-75 CNS, 0.251 µM. The TGI in the assay on UACC-257 melanoma is 4.23 µM; in the assay with SF-295 CNS, 18 µM; with UACC-62 melanoma it was 2.61 µM; in the assay on U251 CNS it was 2.94 µM; in the assay with SK-MEL-2 melanoma it was 3.37 µM; in the assay with HCC-2998 colon it was 3.29 µM. The TGI in the assay on EKVX NSCLC stood at 2.88 µM; with CAKI-1 renal, 2.13 µM; in the assay on SK-MEL-28 melanoma, 3.03 µM; with SNB-75 CNS, 1.78 µM.

`O=P(O)(O)OCC1OC(n2cnc3c(NCc4ccccc4)ncnc32)C(O)C1O` (stereo not given): the GI50 is greater than 75.2 µM in the assay on UACC-257 melanoma; 3.09 µM in the assay on SF-295 CNS; 5.02 µM in the assay on UACC-62 melanoma; 5.21 µM in the assay with U251 CNS; greater than 23.8 µM in the assay with SK-MEL-2 melanoma; 2.01 µM with HCC-2998 colon. Also, the GI50 with EKVX NSCLC was 2.97 µM; in the assay with CAKI-1 renal, 1.4 µM; in the assay on SK-MEL-28 melanoma, 21.2 µM; in the assay on SNB-75 CNS, 0.987 µM. For the same molecule, the TGI with UACC-257 melanoma was greater than 100 µM; in the assay with SF-295 CNS it was 21.8 µM; in the assay on UACC-62 melanoma it was greater than 100 µM; with U251 CNS it was greater than 100 µM; with SK-MEL-2 melanoma, greater than 84.4 µM; in the assay on HCC-2998 colon it was 11.8 µM. Further, the TGI in the assay on EKVX NSCLC was 80.1 µM; with CAKI-1 renal, 14.3 µM; in the assay with SK-MEL-28 melanoma, greater than 100 µM; in the assay with SNB-75 CNS, greater than 44.1 µM.

As to `C[CH2][Sn]([CH2]C)([O]C(=O)c1ccc(F)cc1)[O]C(=O)c1ccc(F)cc1`, the GI50 was 19.7 µM in the assay on UACC-257 melanoma; 44.3 µM in the assay on SF-295 CNS; 17.7 µM in the assay with UACC-62 melanoma; 19 µM with U251 CNS; 12.8 µM in the assay with SK-MEL-2 melanoma; 90.9 µM in the assay on HCC-2998 colon. Further, the GI50 in the assay on EKVX NSCLC was greater than 100 µM; in the assay with CAKI-1 renal it was 4.05 µM; in the assay with SK-MEL-28 melanoma, 18.6 µM; with SNB-75 CNS, 17.9 µM. Further, the TGI is 41 µM with UACC-257 melanoma; greater than 65.7 µM with SF-295 CNS; 36.6 µM with UACC-62 melanoma; 42 µM in the assay with U251 CNS; 17.5 µM in the assay on SK-MEL-2 melanoma; greater than 100 µM in the assay with HCC-2998 colon. For the same molecule, the TGI with EKVX NSCLC is greater than 100 µM; with CAKI-1 renal, 16.3 µM; with SK-MEL-28 melanoma, 34.8 µM; in the assay with SNB-75 CNS, 33.5 µM.

For `C/C=C(\C)C(=O)OC1/C=C(\C)CC/C=C(\C)CC2OC(=O)C(C)(OC(C)=O)C12` (stereo not given), the TGI with UACC-257 melanoma, in the assay on SF-295 CNS, in the assay on UACC-62 melanoma, in the assay with U251 CNS, with SK-MEL-2 melanoma and in the assay with HCC-2998 colon was greater than 100 µM in each case. Further, the TGI in the assay with EKVX NSCLC, in the assay on CAKI-1 renal, in the assay on SK-MEL-28 melanoma and with SNB-75 CNS was greater than 100 µM each time.
